Laboratory results reported in ChEMBL document CHEMBL5214923, “Contemporary mTOR inhibitor scaffolds to diseases breakdown: A patent review (2015-2021)” (Eur J Med Chem, 2022).
pIC50: −log10 of the molar value.

Assays:
[1] = Inhibition of mTORC1 in mouse MEF TSC1-/- cells assessed as measuring phosphorylated S6 level incubated for 2 hrs by Hoechst staining based fluorescence assay; assay type: cell-based
[2] = target: T1, mTORC2 (Homo sapiens, UniProt P42345+Q6R327+Q9BPZ7+Q9BVC4); experiment: Inhibition of mTORC2 (unknown origin); assay type: protein-complex assay
T1 sequence (Q6R327 whole entry, other chains not shown): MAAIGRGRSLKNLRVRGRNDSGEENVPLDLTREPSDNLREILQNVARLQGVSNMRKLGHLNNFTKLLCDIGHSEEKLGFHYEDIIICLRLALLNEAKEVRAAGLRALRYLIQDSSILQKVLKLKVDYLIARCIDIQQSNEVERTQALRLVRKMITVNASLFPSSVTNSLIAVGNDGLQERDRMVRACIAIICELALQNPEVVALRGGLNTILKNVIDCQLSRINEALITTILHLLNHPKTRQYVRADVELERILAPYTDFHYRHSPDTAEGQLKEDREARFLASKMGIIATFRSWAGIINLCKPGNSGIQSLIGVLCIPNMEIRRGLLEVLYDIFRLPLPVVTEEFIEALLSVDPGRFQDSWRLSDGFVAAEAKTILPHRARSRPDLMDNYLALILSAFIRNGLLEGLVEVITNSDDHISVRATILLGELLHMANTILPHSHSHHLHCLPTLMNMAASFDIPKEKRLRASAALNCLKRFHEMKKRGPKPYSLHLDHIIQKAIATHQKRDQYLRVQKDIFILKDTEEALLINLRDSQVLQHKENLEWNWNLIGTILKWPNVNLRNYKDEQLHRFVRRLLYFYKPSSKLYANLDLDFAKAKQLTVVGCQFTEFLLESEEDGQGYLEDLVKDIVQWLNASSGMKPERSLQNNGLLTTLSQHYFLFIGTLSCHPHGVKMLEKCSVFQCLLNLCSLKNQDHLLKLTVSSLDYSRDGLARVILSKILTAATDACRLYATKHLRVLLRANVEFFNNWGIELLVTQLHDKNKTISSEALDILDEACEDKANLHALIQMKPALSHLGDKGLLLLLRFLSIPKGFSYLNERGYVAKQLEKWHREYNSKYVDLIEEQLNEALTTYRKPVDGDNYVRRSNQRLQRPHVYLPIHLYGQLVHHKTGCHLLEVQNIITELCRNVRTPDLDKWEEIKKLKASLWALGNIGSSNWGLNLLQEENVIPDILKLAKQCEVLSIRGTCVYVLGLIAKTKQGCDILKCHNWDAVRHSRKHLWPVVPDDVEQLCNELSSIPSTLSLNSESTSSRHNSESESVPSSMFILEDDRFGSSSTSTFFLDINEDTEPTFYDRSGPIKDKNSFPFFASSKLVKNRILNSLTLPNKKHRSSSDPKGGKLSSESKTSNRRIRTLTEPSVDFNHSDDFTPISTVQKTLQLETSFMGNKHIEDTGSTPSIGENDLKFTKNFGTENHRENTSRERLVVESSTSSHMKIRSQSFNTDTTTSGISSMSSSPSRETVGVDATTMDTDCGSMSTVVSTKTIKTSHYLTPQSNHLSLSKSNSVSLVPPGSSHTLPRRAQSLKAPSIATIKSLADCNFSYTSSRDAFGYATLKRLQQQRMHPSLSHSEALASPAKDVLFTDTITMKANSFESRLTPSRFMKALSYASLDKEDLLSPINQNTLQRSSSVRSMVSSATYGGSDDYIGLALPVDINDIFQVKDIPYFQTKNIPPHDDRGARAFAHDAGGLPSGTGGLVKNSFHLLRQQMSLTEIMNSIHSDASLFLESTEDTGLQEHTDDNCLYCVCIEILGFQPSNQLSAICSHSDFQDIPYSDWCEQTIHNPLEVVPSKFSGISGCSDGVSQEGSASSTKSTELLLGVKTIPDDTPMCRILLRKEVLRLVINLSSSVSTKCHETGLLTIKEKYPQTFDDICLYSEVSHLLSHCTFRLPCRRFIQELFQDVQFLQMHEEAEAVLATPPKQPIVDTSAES
T1 sequence (Q9BPZ7 2-522 limits assumed, other chains not shown): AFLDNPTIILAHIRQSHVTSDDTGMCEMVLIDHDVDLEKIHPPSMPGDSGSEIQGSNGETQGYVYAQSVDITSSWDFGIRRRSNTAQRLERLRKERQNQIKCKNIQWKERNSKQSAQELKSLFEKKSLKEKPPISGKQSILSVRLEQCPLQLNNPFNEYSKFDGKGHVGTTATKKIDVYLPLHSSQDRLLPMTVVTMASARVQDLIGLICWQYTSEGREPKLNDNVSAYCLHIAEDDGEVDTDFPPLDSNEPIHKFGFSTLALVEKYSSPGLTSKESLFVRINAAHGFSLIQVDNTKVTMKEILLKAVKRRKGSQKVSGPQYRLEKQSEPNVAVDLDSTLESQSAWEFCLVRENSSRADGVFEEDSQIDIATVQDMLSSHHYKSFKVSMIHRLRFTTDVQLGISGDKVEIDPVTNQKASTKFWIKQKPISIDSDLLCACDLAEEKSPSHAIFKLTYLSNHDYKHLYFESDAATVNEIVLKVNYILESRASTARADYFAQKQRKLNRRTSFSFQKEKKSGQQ
T1 sequence (Q9BVC4 whole entry, other chains not shown): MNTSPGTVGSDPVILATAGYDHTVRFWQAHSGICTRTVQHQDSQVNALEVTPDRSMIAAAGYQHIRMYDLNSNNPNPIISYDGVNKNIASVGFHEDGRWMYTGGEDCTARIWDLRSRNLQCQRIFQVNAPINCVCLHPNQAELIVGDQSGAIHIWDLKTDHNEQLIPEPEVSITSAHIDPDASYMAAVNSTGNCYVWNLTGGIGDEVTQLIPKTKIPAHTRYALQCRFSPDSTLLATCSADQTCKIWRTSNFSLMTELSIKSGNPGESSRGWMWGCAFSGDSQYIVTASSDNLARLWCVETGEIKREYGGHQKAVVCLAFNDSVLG

[3] = target: T2, mTORC1 (Homo sapiens, UniProt P42345+Q8N122+Q9BVC4); experiment: Inhibition of mTORC1 (unknown origin); assay type: protein-complex assay
[4] = target: T1, mTORC2; experiment: Inhibition of mTORC2 in human MCF7 cells assessed as measuring phosphorylated AKT incubated for 2 hrs by AlphaLISA assay; assay type: cell-based
[5] = target: T2, mTORC1; experiment: Inhibition of mTORC1 in human MCF7 cells assessed as measuring phosphorylated S6K1 incubated for 2 hrs by AlphaLISA assay; assay type: cell-based

pIC50 [2] | pIC50 [3] | pIC50 [4] | pIC50 [5] | SMILES | further results
 |  |  |  | CO[C@@H]1C[C@H](C[C@@H](C)[C@@H]2CC(=O)[C@H](C)/C=C(\C)[C@@H](O)[C@@H](OC)C(=O)[C@H](C)C[C@H](C)/C=C/C=C/C=C(\C)C(N3CCS3(=O)=O)C[C@@H]3CC[C@@H](C)[C@@](O)(O3)C(=O)C(=O)N3CCCC[C@H]3C(=O)O2)CC[C@@H]1n1cnnn1 (some centres not stated) | pIC50 ([1]; Mus musculus, MEF, 2 h): 9.43
6.66 | 7.10 |  |  | Nc1ncc(-c2nc(N3C4CCC3COC4)nc(N3C4COCC3COC4)n2)c(C(F)F)n1 | 
≤ 7.00 | > 10.00 |  |  | CO[C@@H]1C[C@H](C[C@@H](C)[C@@H]2CC(=O)[C@H](C)/C=C(\C)[C@@H](O)[C@@H](OC)C(=O)[C@H](C)C[C@H](C)/C=C/C=C/C=C(\C)[C@@H](OCC3COCCOCCOCCO3)C[C@@H]3CC[C@@H](C)[C@@](O)(O3)C(=O)C(=O)N3CCCC[C@H]3C(=O)O2)CC[C@H]1O (some centres not stated) | 
≤ 7.00 | > 10.00 |  |  | CO[C@@H]1C[C@H](C[C@@H](C)[C@@H]2CC(=O)[C@H](C)/C=C(\C)[C@@H](O)[C@@H](OC)C(=O)[C@H](C)C[C@H](C)/C=C/C=C/C=C(\C)[C@@H](OCCSCCSCCO)C[C@@H]3CC[C@@H](C)[C@@](O)(O3)C(=O)C(=O)N3CCCC[C@H]3C(=O)O2)CC[C@H]1O | 
 |  | < 5.00 | 8.00 | CNC(=O)c1cc(F)ccc1N1CCN(C(=O)c2cc(NC3CCN(c4ccccc4C#N)CC3)c(C)cc2C)CC1 | 
7.13 | 7.17 |  |  | C[C@H]1COCCN1c1nc(-c2cnc(N)cc2C(F)F)nc(N2CCOCC2)n1 | 
 |  | < 5.00 | 8.00 | Cc1c(CN2CCN(c3ncccc3Cl)CC2)cc(C(=O)N2CCN(c3cc(F)c(F)cc3C#N)CC2)n1C | 
 |  |  |  | CO[C@@H]1C[C@H](C[C@@H](C)[C@@H]2CC(=O)[C@H](C)/C=C(\C)[C@@H](O)[C@@H](OC)C(=O)[C@H](C)C[C@H](C)/C=C/C=C/C=C(\C)C(N3CCS3(=O)=O)C[C@@H]3CC[C@@H](C)[C@@](O)(O3)C(=O)C(=O)N3CCCC[C@H]3C(=O)O2)CC[C@H]1OCCO (some centres not stated) | pIC50 ([1]; Mus musculus, MEF, 2 h): 9.48
 |  | < 5.00 | 8.00 | Cc1cc(C)c(C(=O)N2CCN(c3ccc(F)cn3)[C@H](CO)C2)c(C)c1NC1CCN(c2cccnn2)CC1 | 
 | 10.30 |  |  | CO[C@H]1C[C@@H]2CC[C@@H](C)[C@@](O)(O2)C(=O)C(=O)N2CCCC[C@H]2C(=O)O[C@H]([C@H](C)C[C@@H]2CC[C@@H](OCCO)[C@H](OC)C2)CC(=O)[C@H](C)/C=C(\C)[C@@H](O)[C@@H](OC)C(=O)[C@H](C)C[C@H](C)/C=C/C=C/C=C/1C [EVEROLIMUS] | 
≤ 7.00 | > 10.00 |  |  | CO[C@@H]1C[C@H](C[C@@H](C)[C@@H]2CC(=O)[C@H](C)/C=C(\C)[C@@H](O)[C@@H](OC)C(=O)[C@H](C)C[C@H](C)/C=C/C=C/C=C(\C)[C@@H](OCCOCCO)C[C@@H]3CC[C@@H](C)[C@@](O)(O3)C(=O)C(=O)N3CCCC[C@H]3C(=O)O2)CC[C@H]1O | 
 |  |  |  | CO[C@@H]1C[C@H](C[C@@H](C)[C@@H]2CC(=O)[C@H](C)/C=C(\C)[C@@H](O)[C@@H](OC)C(=O)[C@H](C)C[C@H](C)/C=C/C=C/C=C(\C)[C@H](N3CCCS3(=O)=O)C[C@@H]3CC[C@@H](C)[C@@](O)(O3)C(=O)C(=O)N3CCCC[C@H]3C(=O)O2)CC[C@H]1O | pIC50 ([1]; Mus musculus, MEF, 2 h): 9.56
 |  | < 5.00 | 8.00 | Cc1c(CN2CCN(c3ccccc3C#N)CC2)cc(C(=O)N2CCN(c3oc(C4CC4)nc3C#N)CC2)n1C | 
 |  | < 5.00 | 8.00 | Cc1cc(C)c(C(=O)N2CCN(c3cncc4cn[nH]c34)CC2)nc1NC1CCN(c2ccccc2C#N)CC1 | 
 |  | < 5.00 | 8.00 | Cc1cc(C)c(C(=O)N2CCN(c3ccccn3)[C@H](CO)C2)cc1NC1CCN(c2ccccc2OC(F)F)CC1 | 
 |  | < 5.00 | 8.00 | Cn1c(C(=O)N2CCN(c3ccccc3)CC2)cc(CN2CCN(c3ccccc3C#N)CC2)c1C#N | 
≤ 7.00 | > 10.00 |  |  | CO[C@@H]1C[C@H](C[C@@H](C)[C@@H]2CC(=O)[C@H](C)/C=C(\C)[C@@H](O)[C@@H](OC)C(=O)[C@H](C)C[C@H](C)/C=C/C=C/C=C(\C)[C@@H](OCCOCCOCCOCCOCCOCCOCCOCCO)C[C@@H]3CC[C@@H](C)[C@@](O)(O3)C(=O)C(=O)N3CCCC[C@H]3C(=O)O2)CC[C@H]1O | 
 |  | < 5.00 | 8.00 | Cc1cc(C)c(C(=O)N2CCN(c3cccc(F)c3[S@](C)(=N)=O)CC2)cc1NC1CCN(c2ccccc2C#N)CC1 | 
6.97 | 7.33 |  |  | CC1(C)COCCN1c1nc(-c2cnc(N)cc2C(F)F)nc(N2CCOCC2(C)C)n1 | 

pIC50 [2] | pIC50 [3] | pIC50 [4] | pIC50 [5] | SMILES | further results
 |  | < 5.00 | 8.00 | Cc1c(CN2CCN(c3ccccc3Cl)CC2)cc(C(=O)N2CCN(c3cccc(F)c3C#N)C[C@@H]2C)n1C | 
 |  |  |  | CO[C@@H]1C[C@H](C[C@@H](C)[C@@H]2CC(=O)[C@H](C)/C=C(\C)[C@@H](O)[C@@H](OC)C(=O)[C@H](C)C[C@H](C)/C=C/C=C/C=C(\C)C(N3CCCCS3(=O)=O)C[C@@H]3CC[C@@H](C)[C@@](O)(O3)C(=O)C(=O)N3CCCC[C@H]3C(=O)O2)CC[C@H]1O (some centres not stated) | pIC50 ([1]; Mus musculus, MEF, 2 h): 8.47
 |  |  |  | CO[C@@H]1C[C@H](C[C@@H](C)[C@@H]2CC(=O)[C@H](C)/C=C(\C)[C@@H](O)[C@@H](OC)C(=O)[C@H](C)C[C@H](C)/C=C/C=C/C=C(\C)C(N3CCCS3(=O)=O)C[C@@H]3CC[C@@H](C)[C@@](O)(O3)C(=O)C(=O)N3CCCC[C@H]3C(=O)O2)CC[C@H]1OCCO (stereo in doubt; 12) | pIC50 ([1]; mef): 7.65
 |  |  |  | CO[C@@H]1C[C@H](C[C@@H](C)[C@@H]2CC(=O)[C@H](C)/C=C(\C)[C@@H](O)[C@@H](OC)C(=O)[C@H](C)C[C@H](C)/C=C/C=C/C=C(\C)C(N3CCCS3(=O)=O)C[C@@H]3CC[C@@H](C)[C@@](O)(O3)C(=O)C(=O)N3CCCC[C@H]3C(=O)O2)CC[C@H]1O (some centres not stated) | pIC50 ([1]; Mus musculus, MEF, 2 h): 8.87
6.81 | 7.01 |  |  | Nc1ncc(-c2nc(N3CCOCC3)c3c(n2)N2CCOC[C@@H]2C3)cn1 | 
 |  |  |  | CO[C@@H]1C[C@H](C[C@@H](C)[C@@H]2CC(=O)[C@H](C)/C=C(\C)[C@@H](O)[C@@H](OC)C(=O)[C@H](C)C[C@H](C)/C=C/C=C/C=C(\C)C(N3CCCS3(=O)=O)C[C@@H]3CC[C@@H](C)[C@@](O)(O3)C(=O)C(=O)N3CCCC[C@H]3C(=O)O2)CC[C@H]1OCCO (stereo in doubt; 13) | pIC50 ([1]; mef): 8.08
 |  | < 5.00 | 8.00 | Cc1cc(C)c(C(=O)N2CCN(c3ncccc3S(N)(=O)=O)CC2)nc1NC1CCN(c2ccccc2C#N)CC1 | 
≤ 7.00 | > 10.00 |  |  | CO[C@@H]1C[C@H](C[C@@H](C)[C@@H]2CC(=O)[C@H](C)/C=C(\C)[C@@H](O)[C@@H](OC)C(=O)[C@H](C)C[C@H](C)/C=C/C=C/C=C(\C)[C@@H](OCCOCCOCCO)C[C@@H]3CC[C@@H](C)[C@@](O)(O3)C(=O)C(=O)N3CCCC[C@H]3C(=O)O2)CC[C@H]1O | 
 |  |  |  | CO[C@@H]1C[C@H](C[C@@H](C)[C@@H]2CC(=O)[C@H](C)/C=C(\C)[C@@H](O)[C@@H](OC)C(=O)[C@H](C)C[C@H](C)/C=C/C=C/C=C(\C)C(N3CCS3(=O)=O)C[C@@H]3CC[C@@H](C)[C@@](O)(O3)C(=O)C(=O)N3CCCC[C@H]3C(=O)O2)CC[C@H]1O (some centres not stated) | pIC50 ([1]; Mus musculus, MEF, 2 h): 9.77
6.84 | 7.19 |  |  | Nc1ncc(-c2nc(N3CCOCC3)c3c(n2)N2CCOC[C@H]2C3)cn1 | 
 |  | < 5.00 | 8.00 | Cc1c(CN2C3CCC2CN(c2ccccc2C#N)C3)cc(C(=O)N2CCN(c3ccccn3)CC2)n1C | 
5.90 | 6.23 |  |  | Nc1ncc(-c2nc(N3CCOCC3)nc3c2C[C@H]2COCCN32)cn1 | 
 |  | < 5.00 | 8.00 | Cn1c(C(=O)N2CCN(c3ccccc3)CC2)cc(CN2CCN(c3ccccc3Cl)CC2)c1C#N | 
7.27 | 7.35 |  |  | CC1(C)COCCN1c1nc(-c2cnc(N)cc2C(F)F)nc(N2CCOCC2)n1 | 
7.46 | 7.14 |  |  | C[C@H]1COCCN1c1nc(-c2cnc(N)nc2C(F)F)nc(N2CCOCC2)n1 | 
 |  | < 5.00 | 8.00 | Cc1cc(C)c(C(=O)N2CCN(c3cccnc3S(N)(=O)=O)CC2)c(C)c1NC1CCN(c2ccccc2C#N)CC1 | 
6.24 | 6.24 |  |  | Nc1ncc(-c2nc(N3CCOCC3)nc3c2C[C@@H]2COCCN32)cn1 | 
 |  | < 5.00 | 8.00 | Cc1cc(C)c(C(=O)N2CCN(c3ncccc3F)[C@H](CO)C2)cc1NC1CCN(c2ccccc2C#N)CC1 | 
 |  | < 5.00 | 8.00 | Cc1cc(C)c(C(=O)N2CCN(c3ccccc3)C(C(N)=O)C2)c(C)c1NC1CCN(c2ccc(F)cc2C#N)CC1 (configuration not stated) | 
